In PubChem BioAssay (NCI):
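Tested at 5 concentrations; 48 h exposure; 96-well plates; endpoints linearly interpolated, else capped at highest concentration. Here, GI50 denotes the concentration required for 50% inhibition of growth. Definition used: TGI = concentration required for complete inhibition of growth.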

Legend:
Assay in all cases: inhibition of tumour cell growth, NCI panel, 48 h
[1] = system: 786-0 renal
[2] = system: A549 NSCLC
[3] = system: HS 578T breast
[4] = system: MCF7 breast
[5] = system: NCI-H23 lung
[6] = system: NCI-H460 lung
[7] = system: OVCAR-3 ovarian
[8] = system: SK-OV-3 ovarian
[9] = system: SW-620 colon
[10] = system: RXF 393 renal

| Structure (SMILES) | GI50 [1] [µM] | TGI [1] [µM] | GI50 [2] [µM] | TGI [2] [µM] | GI50 [3] [µM] | TGI [3] [µM] | GI50 [4] [µM] | TGI [4] [µM] | GI50 [5] [µM] | TGI [5] [µM] | GI50 [6] [µM] | TGI [6] [µM] | GI50 [7] [µM] | TGI [7] [µM] | GI50 [8] [µM] | TGI [8] [µM] | GI50 [9] [µM] | TGI [9] [µM] | TGI [10] [µM] | GI50 [10] [µM] |
| --- | --- | --- | --- | --- | --- | --- | --- | --- | --- | --- | --- | --- | --- | --- | --- | --- | --- | --- | --- | --- |
| Cc1cn2c(/C=C3/C(=O)Nc4ccc(F)cc43)c(C)nc2s1 | 14.4 | > 50 | 6.37 | > 50 | 7.98 | 28.2 | 1.92 | > 50 | 7.85 | > 50 | 2.4 | > 50 | 3.5 | > 50 | 10.6 | > 50 | 3.18 | > 50 |  |  |
| Cc1ccc(/C=C(\C#N)c2ccccc2)cc1 |  | > 100 |  |  |  |  |  |  |  | > 100 |  | > 100 |  | > 100 |  | > 100 |  | > 100 | > 100 |  |
| CN1CCN(Cc2ccc(NC(=O)c3cncc(C#Cc4cnn5ccccc45)c3)cc2C(F)(F)F)CC1 | 1.1 | 2.26 | 0.723 | 3.56 | 0.735 | 2.91 | 0.408 | 2.29 | 0.655 | 1.97 | 0.402 | 1.98 | 1.43 | 3.62 | 1.51 | 4.61 | 0.382 | 3.22 | 1.66 | 0.693 |
| C=C1C(=O)OC2CC3(C)CCCC(C)C3=CC12 (centres undefined) |  | 11.6 |  | 26.8 |  | 36.6 |  | 5.28 |  | 19.9 |  | 13.7 |  |  |  | 56.1 |  | 6.13 |  |  |
| COC(=O)c1ccc2c(c1)c1c(C)c3ccncc3c(C)c1n2C | 0.268 | 18 | 0.484 | > 100 | 0.561 | > 100 | 0.267 | 1.77 | 0.304 | 16.1 | 0.296 | 12.6 | 0.536 | 47.2 | 0.471 | > 100 | 0.0658 | 58.3 |  |  |
| COCOCC[C@@H]1CC=CC(NC(=O)OCc2ccccc2)C1/C=C/C(=O)CCC1OCCO1 (some centres undefined) |  | > 100 |  | > 100 |  |  |  |  |  | 97.8 |  | > 100 |  | > 76.1 |  | > 100 |  | 59.5 | > 75.9 |  |
| COC(=O)C(C(=O)C(=O)Nc1ccc(OC)cc1[N+](=O)[O-])c1nc2cc(C)c(C)cc2[nH]c1=O (centres undefined) |  | > 100 |  | > 100 |  |  |  |  |  | > 100 |  | > 100 |  | > 100 |  | > 100 |  | > 100 | > 100 |  |
| CCc1nc2cc(/C=C/C(=O)NO)ccc2c(=O)n1CCc1ccc(F)cc1 | 1.76 | 3.89 | 1.72 | 4.58 | 2.26 | > 100 | 1.31 | > 100 | 1.62 | 3.7 | 1.08 | 3.82 |  |  | 1.93 | 4.3 |  |  |  |  |
| Cc1nc(Nc2ccccc2)sc1C(=O)CC(=O)C(=O)NC12CC3CC(CC(C3)C1)C2 |  | > 100 |  | > 100 |  |  |  |  |  | > 100 |  | > 100 |  | > 100 |  | > 100 |  | > 100 | > 100 |  |
| NNC(=O)N/N=C1\C(=O)N(c2nccs2)C(=O)C(=O)C1c1nc2ccccc2s1 (centres undefined) |  | > 100 |  | > 100 |  |  |  |  |  | > 100 |  | > 100 |  | > 100 |  | > 100 |  | > 100 | > 100 |  |
| CCOC(=O)NC(=O)c1cn(CCN2CCNCC2)c(=O)[nH]c1=O |  | > 100 |  | > 100 |  |  |  |  |  | > 100 |  | > 100 |  | > 100 |  | > 100 |  | > 100 | > 100 |  |
| OC1CCC[C@@H]1Sc1ccccc1 (some centres undefined) |  | > 100 |  | > 100 |  |  |  |  |  | > 100 |  | > 100 |  | > 100 |  | > 100 |  | > 100 | > 100 |  |
| CO[C@@H]1[C@H]2[C@@H](C)c3ccoc3C[C@@H]2[C@@]2(C)CC[C@H](OC(=O)c3ccccc3)[C@](C)(C(=O)O)[C@]2(O)[C@@H]1OC(=O)c1ccccc1 | 15.8 | > 50 | 10.6 | > 50 | 24.8 | > 50 | 17.4 | > 50 | 10.6 | 28.5 | 13.4 | > 50 | 5.17 | 15.9 |  |  | 9.3 | 20 | 39 | 12.2 |
| COC(=O)C(=O)C(C(=O)C(=O)Nc1ccc(C)cc1)c1nc2ccc(C(=O)c3ccccc3)cc2[nH]c1=O (centres undefined) |  | > 100 |  | > 100 |  | > 100 |  |  |  | > 100 |  | > 100 |  | > 100 |  | > 100 |  | > 100 | > 100 |  |
| CC1=C2[C@H](c3ccccc3)C3C=CC2(c2ccccc23)N(C(=O)C(c2ccccc2)c2ccccc2)C1=O (some centres undefined) |  | > 100 |  | > 100 |  |  |  |  |  | > 100 |  | > 100 |  | > 100 |  | > 100 |  | > 100 | > 100 |  |
| COC(=O)C(=O)C(C(=O)C=C(C)C)C(=O)C(=O)Nc1nc2ccc([N+](=O)[O-])cc2s1 (centres undefined) |  | > 100 |  | > 100 |  |  |  |  |  | > 100 |  | > 100 |  | > 100 |  | > 100 |  | > 100 | 45.2 |  |
| CCN(CC)CC(C)(C)C(=O)/C=C/c1ccc(/C=C/C(=O)C(C)(C)CN(CC)CC)cc1 |  | 0.411 |  | 5.76 |  | 4.45 |  |  |  | 4.73 |  | 0.755 |  | 1.76 |  | 4.08 |  | 0.523 | 0.928 |  |
| CC(=O)O/N=C(Cl)/C(Cl)=N/OC(C)=O |  | > 100 |  | > 100 |  |  |  |  |  | > 100 |  | > 100 |  |  |  | > 100 |  | > 100 | > 100 |  |
| O=C(Nc1cccnc1)c1ccc2ccc3ccc(C(=O)Nc4cccnc4)nc3c2n1 | 0.206 | > 100 | 0.135 | > 100 | 0.434 | > 100 | 0.137 | > 100 | 0.202 | > 100 | 0.0537 |  | 0.242 | > 100 |  |  | 0.0781 | > 100 | 0.342 | 0.11 |
